Measured values: ChEMBL document CHEMBL1938248, “Symmetric dimers of ent-kaurane diterpenoids with cytotoxic activity from Croton tonkinensis” (Bioorg Med Chem Lett, 2012)

What was measured:
Assay type in all cases: functional, cell-based
MDA-MB-231 = test: Cytotoxicity against human MDA-MB-231 cells by WST-1 assay
[1] = Cytotoxicity against human MCF7/ADR cells by WST-1 assay; conditions: NCI/ADR-RES
MCF7 [2] = test: Cytotoxicity against human tamoxifen-resistant MCF7 cells by WST-1 assay
MCF7 [3] = test: Cytotoxicity against human MCF7 cells by WST-1 assay

Structure (SMILES)	IC50 (MDA-MB-231) [µM]	IC50 [1] [µM]	IC50 (MCF7 [2]) [µM]	IC50 (MCF7 [3]) [µM]
CC[C@@]1(O)C(=O)OCc2c1cc1n(c2=O)Cc2cc3ccccc3nc2-1 [CAMPTOTHECIN]	2.7	0.8	1.8	2.6
C[C@]1(CO)CCC[C@]2(C)[C@@H]1C[C@@H](O)[C@@]13C[C@H](CC[C@@H]21)[C@@](O)(CC[C@@]1(O)C(=O)[C@]24C[C@@H]1CC[C@H]2[C@]1(C)CCC[C@](C)(CO)[C@H]1C[C@H]4O)C3=O [CROTONKINENSIN C]	> 30	> 30	> 30	> 30
CC(=O)OC[C@@]1(C)CCC[C@]2(C)[C@@H]1C[C@@H](O)[C@@]13C[C@H](CC[C@@H]21)[C@@](O)(CC[C@@]1(O)C(=O)[C@]24C[C@@H]1CC[C@H]2[C@]1(C)CCC[C@](C)(COC(C)=O)[C@H]1C[C@H]4O)C3=O [CROTONKINENSIN D]	22	18.9	2.6	9.4
COc1cccc2c1C(=O)c1c(O)c3c(c(O)c1C2=O)C[C@@](O)(C(=O)CO)C[C@@H]3O[C@H]1C[C@H](N)[C@H](O)[C@H](C)O1 [DOXORUBICIN]		83.2		
